Results taken from paper PMC8954547, “Nonpeptidic Z360-Analogs Tagged with Trivalent Radiometals as Anti-CCK2R Cancer Theranostic Agents: A Preclinical Study” (Pharmaceutics, 2022).
Several values for one entry are separate records, joined by “and”; a condition that tells them apart may be missing. Equal entries are not always repeated.

What was measured:
[1] = test system: HEK293-CCK2i4svR and wtHEK293 xenografts; experiment: SPECT/CT of HEK293-CCK2i4svR and wtHEK293 xenografts; assay type: in vivo, mice; details: 4 h and 24 h pi
Protocol: For SPECT/CT imaging, six mice bearing twin HEK293-CCK2i4svR and wtHEK293 tumors were injected in the tail vein with a bolus containing [^111In]In-GAS1/2/3 (100 μL, 9–12 MBq associated with 3 nmol total injected analog in-vehicle: saline/EtOH 9/1 v/v). Mice were euthanized at 4 h and 24 h pi. Tomographic SPECT/CT imaging was performed with the y-CUBE/x-CUBE systems (Molecubes, Belgium). The SPECT system is based on monolithic NaI detectors attached to SiPMs, with a 0.6 mm intrinsic resolution. The CT system is based on a structured CMOS detector of CsI with pixels of 75 µm and operates between 35–80 kVp, 10–500 µA tube current, with a 33 µm fixed focal spot size. SPECT scans were acquired 4 h pi and 24 h pi, with a 40–50 min duration protocol based on the injected activity, and each SPECT scan was succeeded by a CT scan, following General-Purpose protocol under 50 kVp, for co-registration purposes. SPECT images were reconstructed using the MLEM reconstruction method with a 250 µm voxel size and 500 iterations. CT images were reconstructed using the ISRA reconstruction method with a 100 µm voxel size.
Images were exported and post-processed on VivoQuant software, version 4.0 (Invicro, Boston). A smoothing median filter (0.6 mm, spherical window) was applied to the images, and the bladder was removed for consistency purposes. Normalization of images was performed (i.e., all images having the same color scale range values) to achieve a direct visual comparison between the different groups.

[2] = test system: SCID mice bearing twin HEK293-CCK2i4svR and wtHEK293 tumors; experiment: Biodistribution in SCID mice bearing twin HEK293-CCK2i4svR and wtHEK293 xenografts; assay type: in vivo
Method in brief: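 Uptake is expressed as %IA/g (mean ± SD, n = 4) from gamma counting of blood, organs and tumours collected at set times: 1, 4 and 24 h pi for ^67Ga, 4 and 24 h for ^111In (±gelofusine), 4–96 h for ^177Lu. Radioligands were given iv at 7–40 pmol to SCID mice bearing twin CCK2i4svR-transfected and wild-type HEK293 xenografts.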

[3] = Radioligand stability in mice (radio-HPLC of blood and urine); assay type: in vivo; details: mean ± SD; for Intact radioligand in blood: mice blood collected 5 min pi
Method in brief: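 Male Swiss albino mice (n=3) given 2.5–3 nmol radioligand i.v. via tail vein in saline/EtOH 9/1. Blood at 5 min and urine at 30 min pi, EDTA-treated on ice, MeCN-deproteinised, analysed by radio-RP-HPLC; value is mean percent intact radioligand ± SD.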

[4] = 4 h + Gelo (Gelofusine-treated mice)
[5] = 24 h + Gelo (Gelofusine-treated mice)

In the case of `CC(C)(C)C(=O)CN1C(=O)[C@H](NC(=O)Nc2cccc(C(=O)NCCOCCOCCOCCNC(=O)[C@@H](CCC(=O)O)NC(=O)CCC(C(=O)[O-])N3CCN(CC(=O)[O-])CCN(CC(=O)[O-])CC3)c2)CN(C2CCCCC2)c2ccccc21.[111In+3]` (stereo partly shown) [[^111In]In-GAS2], the “SPECT/CT uptake in CCK2i4svR expressing tumors” value [1] is reported as “Intense uptake”, the “SPECT/CT uptake in wtHEK293 tumors devoid of CCK2i4svR expression” value [1] is reported as “no uptake is evident” and the “Biodistribution, Blood” value [2, 4] is reported as 6.29 ± 1.08 %IA/g. The “Biodistribution, CCK2i4svR(+) Tumor” value [2, 4] was 7.67 ± 0.61 %IA/g, the “Biodistribution, CCK2i4svR(-) Tumor” value [2, 4] was 1.72 ± 0.30 %IA/g and the “Biodistribution, Femur” value [2, 4] was 0.99 ± 0.17 %IA/g. The “Biodistribution, Heart” value [2, 4] was 1.42 ± 0.21 %IA/g, the “Biodistribution, Intestines” value [2, 4] was 9.48 ± 0.99 %IA/g and the “Biodistribution, Kidneys” value [2, 4] was 21.90 ± 3.97 %IA/g. The “Biodistribution, Liver” value [2, 4] was 4.56 ± 0.49 %IA/g, the “Biodistribution, Muscle” value [2, 4] was 0.47 ± 0.04 %IA/g and the “Biodistribution, Pancreas” value [2, 4] was 3.00 ± 0.58 %IA/g. For the same molecule, the “Biodistribution, Spleen” value [2, 4] was 1.32 ± 0.20 %IA/g, the “Biodistribution, Stomach” value [2, 4] was 0.94 ± 0.15 %IA/g and the “Biodistribution, Blood” value ([2]; 4 h pi) was 6.40 ± 0.75 %IA/g. The “Biodistribution, CCK2i4svR(+) Tumor” value ([2]; 4 h pi) was 8.91 ± 1.59 %IA/g, the “Biodistribution, CCK2i4svR(-) Tumor” value ([2]; 4 h pi) was 1.82 ± 0.25 %IA/g and the “Biodistribution, Femur” value ([2]; 4 h pi) was 1.15 ± 0.10 %IA/g. For the same molecule, the “Biodistribution, Heart” value ([2]; 4 h pi) was 1.61 ± 0.23 %IA/g, the “Biodistribution, Intestines” value ([2]; 4 h pi) was 9.71 ± 0.42 %IA/g and the “Biodistribution, Kidneys” value ([2]; 4 h pi) was 29.55 ± 3.64 %IA/g. The “Biodistribution, Liver” value ([2]; 4 h pi) was 5.42 ± 0.89 %IA/g, the “Biodistribution, Lungs” value ([2]; 4 h pi) was 3.27 ± 0.46 %IA/g and the “Biodistribution, Muscle” value ([2]; 4 h pi) was 0.56 ± 0.08 %IA/g. The “Biodistribution, Pancreas” value ([2]; 4 h pi) was 2.99 ± 0.96 %IA/g, the “Biodistribution, Spleen” value ([2]; 4 h pi) was 1.49 ± 0.14 %IA/g and the “Biodistribution, Stomach” value ([2]; 4 h pi) was 1.31 ± 0.21 %IA/g. For the same molecule, the “Biodistribution, Blood” value [2, 5] was 0.15 ± 0.02 %IA/g, the “Biodistribution, CCK2i4svR(+) Tumor” value [2, 5] was 2.92 ± 0.37 %IA/g and the “Biodistribution, CCK2i4svR(-) Tumor” value [2, 5] was 0.45 ± 0.09 %IA/g. The “Biodistribution, Femur” value [2, 5] was 0.25 ± 0.03 %IA/g, the “Biodistribution, Heart” value [2, 5] was 0.22 ± 0.03 %IA/g and the “Biodistribution, Intestines” value [2, 5] was 0.75 ± 0.06 %IA/g. For the same molecule, the “Biodistribution, Kidneys” value [2, 5] was 11.51 ± 2.64 %IA/g, the “Biodistribution, Liver” value [2, 5] was 0.95 ± 0.12 %IA/g and the “Biodistribution, Lungs” value [2, 5] was 0.44 ± 0.07 %IA/g. The “Biodistribution, Muscle” value [2, 5] was 0.08± 0.01 %IA/g, the “Biodistribution, Pancreas” value [2, 5] was 0.30 ± 0.05 %IA/g and the “Biodistribution, Spleen” value [2, 5] was 0.56 ± 0.17 %IA/g. The “Biodistribution, Stomach” value [2, 5] was 0.35 ± 0.06 %IA/g, the “Biodistribution, Blood” value ([2]; 24 h pi) was 0.13 ± 0.02 %IA/g and the “Biodistribution, CCK2i4svR(+) Tumor” value ([2]; 24 h pi) was 2.78 ± 0.43 %IA/g. The “Biodistribution, CCK2i4svR(-) Tumor” value ([2]; 24 h pi) was 0.41 ± 0.10 %IA/g, the “Biodistribution, Femur” value ([2]; 24 h pi) was 0.24 ± 0.04 %IA/g and the “Biodistribution, Heart” value ([2]; 24 h pi) was 0.22 ± 0.01 %IA/g. For the same molecule, the “Biodistribution, Intestines” value ([2]; 24 h pi) was 0.68 ± 0.15 %IA/g, the “Biodistribution, Kidneys” value ([2]; 24 h pi) was 10.16 ± 2.30 %IA/g and the “Biodistribution, Liver” value ([2]; 24 h pi) was 0.96 ± 0.22 %IA/g. For the same molecule, the “Biodistribution, Lungs” value ([2]; 24 h pi) was 0.60 ± 0.37 %IA/g, the “Biodistribution, Muscle” value ([2]; 24 h pi) was 0.08 ± 0.01 %IA/g and the “Biodistribution, Pancreas” value ([2]; 24 h pi) was 0.29 ± 0.03 %IA/g. The “Biodistribution, Spleen” value ([2]; 24 h pi) was 0.51 ± 0.09 %IA/g, the “Biodistribution, Stomach” value ([2]; 24 h pi) was 0.36 ± 0.14 %IA/g and the “Intact radioligand in blood” value [3] was 73.1 ± 1.8% and 73.1 ± 1.8 (3) % and 98.3 ± 0.3 (3) %.

For `CC(C)(C)C(=O)CN1C(=O)[C@H](NC(=O)Nc2cccc(C(=O)NCCOCCOCCOCCNC(=O)[C@H](CCC(=O)O)NC(=O)CN3CCN(CC(=O)[O-])CCN(CC(=O)[O-])CCN(CC(=O)[O-])CC3)c2)CN(C2CCCCC2)c2ccccc21.[111In+3]` (stereo in doubt) [[^111In]In-GAS1], the “SPECT/CT uptake in CCK2i4svR expressing tumors” value [1] was “Intense uptake”, the “SPECT/CT uptake in wtHEK293 tumors devoid of CCK2i4svR expression” value [1] was “no uptake is evident” and the “Biodistribution, Blood” value [2, 4] was 2.75 ± 0.48 %IA/g. The “Biodistribution, CCK2i4svR(+) Tumor” value [2, 4] was 19.17 ± 2.06 %IA/g, the “Biodistribution, CCK2i4svR(-) Tumor” value [2, 4] was 0.86 ± 0.15 %IA/g and the “Biodistribution, Femur” value [2, 4] was 0.65 ± 0.15 %IA/g. The “Biodistribution, Heart” value [2, 4] was 0.92 ± 0.16 %IA/g, the “Biodistribution, Intestines” value [2, 4] was 1.87 ± 0.08 %IA/g and the “Biodistribution, Kidneys” value [2, 4] was 5.93 ± 0.56 %IA/g. For the same molecule, the “Biodistribution, Liver” value [2, 4] was 6.34 ± 0.86 %IA/g, the “Biodistribution, Muscle” value [2, 4] was 0.28 ± 0.06 %IA/g and the “Biodistribution, Pancreas” value [2, 4] was 1.47 ± 0.26 %IA/g. For the same molecule, the “Biodistribution, Spleen” value [2, 4] was 1.13 ± 0.28 %IA/g, the “Biodistribution, Stomach” value [2, 4] was 0.77 ± 0.14 %IA/g and the “Biodistribution, Blood” value ([2]; 4 h pi) was 3.51 ± 0.56 %IA/g. The “Biodistribution, CCK2i4svR(+) Tumor” value ([2]; 4 h pi) was 17.79 ± 1.73 %IA/g, the “Biodistribution, CCK2i4svR(-) Tumor” value ([2]; 4 h pi) was 0.73 ± 0.05 %IA/g and the “Biodistribution, Femur” value ([2]; 4 h pi) was 0.77 ± 0.13 %IA/g. For the same molecule, the “Biodistribution, Heart” value ([2]; 4 h pi) was 1.10 ± 0.19 %IA/g, the “Biodistribution, Intestines” value ([2]; 4 h pi) was 3.37 ± 0.89 %IA/g and the “Biodistribution, Kidneys” value ([2]; 4 h pi) was 6.06 ± 1.24 %IA/g. The “Biodistribution, Liver” value ([2]; 4 h pi) was 7.69 ± 1.00 %IA/g, the “Biodistribution, Lungs” value ([2]; 4 h pi) was 2.23 ± 0.39 %IA/g and the “Biodistribution, Muscle” value ([2]; 4 h pi) was 0.26 ± 0.04 %IA/g. The “Biodistribution, Pancreas” value ([2]; 4 h pi) was 1.49 ± 0.19 %IA/g, the “Biodistribution, Spleen” value ([2]; 4 h pi) was 1.56 ± 0.22 %IA/g and the “Biodistribution, Stomach” value ([2]; 4 h pi) was 0.98 ± 0.21 %IA/g. The “Biodistribution, Blood” value [2, 5] was 0.07 ± 0.01 %IA/g, the “Biodistribution, CCK2i4svR(+) Tumor” value [2, 5] was 4.51 ± 0.55 %IA/g and the “Biodistribution, CCK2i4svR(-) Tumor” value [2, 5] was 0.23 ± 0.04 %IA/g. For the same molecule, the “Biodistribution, Femur” value [2, 5] was 0.16 ± 0.01 %IA/g, the “Biodistribution, Heart” value [2, 5] was 0.15 ± 0.02 %IA/g and the “Biodistribution, Intestines” value [2, 5] was 0.49 ± 0.13 %IA/g. For the same molecule, the “Biodistribution, Kidneys” value [2, 5] was 1.69 ± 0.13 %IA/g, the “Biodistribution, Liver” value [2, 5] was 1.30 ± 0.15 %IA/g and the “Biodistribution, Lungs” value [2, 5] was 0.39 ± 0.03 %IA/g. For the same molecule, the “Biodistribution, Muscle” value [2, 5] was 0.06± 0.01 %IA/g, the “Biodistribution, Pancreas” value [2, 5] was 0.14 ± 0.01 %IA/g and the “Biodistribution, Spleen” value [2, 5] was 0.48 ± 0.08 %IA/g. For the same molecule, the “Biodistribution, Stomach” value [2, 5] was 0.25 ± 0.04 %IA/g, the “Biodistribution, Blood” value ([2]; 24 h pi) was 0.08 ± 0.01 %IA/g and the “Biodistribution, CCK2i4svR(+) Tumor” value ([2]; 24 h pi) was 5.40 ± 1.13 %IA/g. The “Biodistribution, CCK2i4svR(-) Tumor” value ([2]; 24 h pi) was 0.27 ± 0.10 %IA/g, the “Biodistribution, Femur” value ([2]; 24 h pi) was 0.16 ± 0.03 %IA/g and the “Biodistribution, Heart” value ([2]; 24 h pi) was 0.15 ± 0.03 %IA/g. For the same molecule, the “Biodistribution, Intestines” value ([2]; 24 h pi) was 0.59 ± 0.11 %IA/g, the “Biodistribution, Kidneys” value ([2]; 24 h pi) was 1.84 ± 0.38 %IA/g and the “Biodistribution, Liver” value ([2]; 24 h pi) was 2.27 ± 0.30 %IA/g. For the same molecule, the “Biodistribution, Lungs” value ([2]; 24 h pi) was 0.36 ± 0.05 %IA/g, the “Biodistribution, Muscle” value ([2]; 24 h pi) was 0.06± 0.00 %IA/g and the “Biodistribution, Pancreas” value ([2]; 24 h pi) was 0.18 ± 0.03 %IA/g. The “Biodistribution, Spleen” value ([2]; 24 h pi) was 0.64 ± 0.12 %IA/g, the “Biodistribution, Stomach” value ([2]; 24 h pi) was 0.21 ± 0.05 %IA/g and the “Intact radioligand in blood” value [3] was 84.6 ± 2.4 (3) %. The “Intact radioligand in urine” value ([3]; mice urine collected 30 min pi) was 85.2 ± 5.2 (3) %.
